Results from patent US20160206688A1, “METHODS FOR TREATING BACTEREMIA AND OSTEOMYELITIS USING ORITAVANCIN” (THE MEDICINES COMPANY, priority 2013, published 2016).
Values after ≈ are worked out from the molar mass of the structure shown. Where two headings read alike, the source gives them in different places.

Legend:
Assay in all cases: Broth microdilution MIC, European bacteraemia isolates 2010-2012
E. faecium = type: cell-based, Enterococcus faecium; conditions: for % Resistant, CLSI / % Susceptible, CLSI: CLSI M100-S23 breakpoints; for % Resistant, EUCAST / % Susceptible, EUCAST: EUCAST 2013 breakpoints; for MIC90: read-out: MIC 90%
Description: (§1) A total of 2,904 clinical strains responsible for documented bacteremia among unique hospitalized patients in 38 hospitals in 11 European Union countries. Israel, Russia, Turkey and Ukraine were included in this study (2010-2012). Isolates were submitted to a central monitoring laboratory (JMI Laboratories, North Liberty. Iowa. USA), following previously established protocols. Bacterial species identification was performed by using an automated system (Vitek®2; bioMèrieux, Hazelwood, Mo., USA) or conventional biochemical algorithms, as required.
(§2) Isolates were tested for susceptibility by broth microdilution methods following the Clinical and Laboratory Standards Institute (CLSI; M07-A9, 2012) document. Susceptibility testing was performed in cation-adjusted Mueller-Hinton broth (CA-MHB) using dry-form panels manufactured by Thermo Fisher Scientific, formerly TREK Diagnostics Systems/Sensititre (Cleveland. Ohio, USA). These panels provide results equivalent to the CLSI-approved broth microdilution method supplemented with 0.002% polysorbate-80.
(§3) Quality assurance was performed by concurrent testing of CLSI-recommended (M100-S23, 2013) strains: E. faecalis ATCC 29212 and S. aureus ATCC 29213. Interpretation of comparator MIC results was in accordance with published CLSI (M100-S23) and European Committee on Antimicrobial Susceptibility Testing (EUCAST, 2013) criteria.

[1] = test system: Coagulase-negative staphylococci; type: cell-based, coagulase-negative staphylococci (CoNS); conditions: Coagulase-negative staphylococci (646); for MIC50: read-out: MIC 50%; for MIC90: read-out: MIC 90%
Description: as §1, §2, §3

S. aureus = type: cell-based; conditions: S. aureus Methicillin-resistant (1,708); for % Resistant, CLSI / % Susceptible, CLSI: CLSI M100-S23 breakpoints; for % Resistant, EUCAST / % Susceptible, EUCAST: EUCAST 2013 breakpoints; for MIC50 / MIC90: Staphylococcus aureus; for MIC50: read-out: MIC 50%; for MIC90: read-out: MIC 90%
Description: as §1, §2, §3

E. faecalis = type: cell-based, Enterococcus faecalis; conditions: for % Resistant, CLSI / % Susceptible, CLSI: CLSI M100-S23 breakpoints
Description: as §1, §2, §3

[2] = E. faecium Vancomycin-resistant (VanA-phenotype) (153)
[3] = E. faecium Vancomycin-susceptible (257)
[4] = Table 2, E. faecium Vancomycin-resistant (VanA-phenotype) (153)
[5] = Table 2, E. faecium Vancomycin-susceptible (257)
[6] = E. faecalis (445), EUCAST 2013 breakpoints

Molecule: Teicoplanin
- % Resistant, CLSI (E. faecium; [2]): 96.2%
- % Susceptible, CLSI (E. faecium; [2]): 0.0%
- % Resistant, EUCAST (E. faecium; [2]): 100.0%
- % Susceptible, EUCAST (E. faecium; [2]): 0.0%
- % Resistant, CLSI (E. faecium; [3]): 0.0%
- % Susceptible, CLSI (E. faecium; [3]): 100.0%
- % Resistant, EUCAST (E. faecium; [3]): 0.4%
- % Susceptible, EUCAST (E. faecium; [3]): 99.6%
- MIC 50% (E. faecium; [4]): >8 mg/L
- MIC 90% (E. faecium; [4]): >8 mg/L
- MIC Range (E. faecium; [4]): >8 mg/L
- MIC 50% (E. faecium; [5]): ≦2 mg/L
- MIC 90% (E. faecium; [5]): ≦2 mg/L
- MIC Range (E. faecium; [5]): ≦2-4 mg/L
- % Resistant, CLSI ([1]; CLSI M100-S23 breakpoints): 0.8%
- % Susceptible, CLSI ([1]; CLSI M100-S23 breakpoints): 97.7%
- % Resistant, EUCAST ([1]; EUCAST 2013 breakpoints): 11.1%
- % Susceptible, EUCAST ([1]; EUCAST 2013 breakpoints): 88.9%
- MIC 50% ([1]; Table 2): ≦2 mg/L
- MIC 90% ([1]; Table 2): 8 mg/L
- % Resistant, CLSI (S. aureus): 0.0%
- % Susceptible, CLSI (S. aureus): 100.0%
- % Resistant, EUCAST (S. aureus): 0.0%
- % Susceptible, EUCAST (S. aureus): 100.0%
- MIC 50% (S. aureus; Table 2): ≦2 mg/L
- MIC 90% (S. aureus; Table 2): ≦2 mg/L
- MIC Range (S. aureus; Table 2): ≦2 mg/L
- % Resistant, CLSI (E. faecalis; E. faecalis (445)): 0.9%
- % Susceptible, CLSI (E. faecalis; E. faecalis (445)): 99.1%
- % Resistant, EUCAST (E. faecalis; [6]): 0.9%
- % Susceptible, EUCAST (E. faecalis; [6]): 99.1%
- % susceptible (E. faecalis; E. faecalis strains, criteria not stated): 99.1%
- MIC 50% (E. faecalis; Table 2, E. faecalis (445)): ≦2 mg/L
- MIC 90% (E. faecalis; Table 2, E. faecalis (445)): ≦2 mg/L

Molecule: CCC[C@@H]1C[C@@H](C(=O)N[C@@H]([C@H]2O[C@H](SC)[C@H](O)[C@@H](O)[C@H]2O)[C@H](C)Cl)N(C)C1 [Clindamycin]
- % Resistant, CLSI ([1]; CLSI M100-S23 breakpoints): 26.0%
- MIC50 ([1]; Table 2): ≤ 0.25 mg/L
- MIC90 ([1]; Table 2): > 2 mg/L
- % Resistant, CLSI (S. aureus): 40.3%
- % Susceptible, CLSI (S. aureus): 59.1%
- % Resistant, EUCAST (S. aureus): 40.9%
- % Susceptible, EUCAST (S. aureus): 58.9%
- MIC50 (S. aureus; Table 2): ≤ 0.25 mg/L
- MIC90 (S. aureus; Table 2): > 2 mg/L

Molecule: CN(C)[C@@H]1C(O)=C(C(N)=O)C(=O)[C@@]2(O)C(O)=C3C(=O)c4c(O)cccc4[C@@](C)(O)[C@H]3C[C@@H]12 [Tetracycline]
- % Resistant, CLSI (E. faecium; [2]): 41.5%
- % Susceptible, CLSI (E. faecium; [2]): 58.5%
- % Resistant, CLSI (E. faecium; [3]): 43.2%
- % Susceptible, CLSI (E. faecium; [3]): 56.0%
- MIC90 (E. faecium; Enterococcus faecium, Table 2, E. faecium Vancomycin-resistant (VanA-phenotype) (153)): > 8 mg/L
- MIC50 (E. faecium; Enterococcus faecium, Table 2, E. faecium Vancomycin-susceptible (257), read-out: MIC 50%): 0.5 mg/L (≈ 1.13 µM)
- MIC90 (E. faecium; Enterococcus faecium, Table 2, E. faecium Vancomycin-susceptible (257)): > 8 mg/L
- MIC 50% (E. faecium; [4]): 0.5 mg/L (≈ 1.13 µM)
- % Resistant, CLSI ([1]; CLSI M100-S23 breakpoints): 15.2%
- MIC50 ([1]; Table 2): 1 mg/L (≈ 2.25 µM)
- MIC90 ([1]; Table 2): > 8 mg/L
- % Resistant, CLSI (S. aureus): 14.2%
- % Susceptible, CLSI (S. aureus): 84.9%
- % Resistant, EUCAST (S. aureus): 15.1%
- % Susceptible, EUCAST (S. aureus): 84.4%
- MIC50 (S. aureus; Table 2): ≤ 0.25 mg/L
- MIC90 (S. aureus; Table 2): > 8 mg/L
- % Resistant, CLSI (E. faecalis; E. faecalis (445)): 73.5%
- % Susceptible, CLSI (E. faecalis; E. faecalis (445)): 26.5%
- MIC50 (E. faecalis; Enterococcus faecalis, Table 2, E. faecalis (445), read-out: MIC 50%): > 8 mg/L
- MIC90 (E. faecalis; Enterococcus faecalis, Table 2, E. faecalis (445), read-out: MIC 90%): > 8 mg/L
